Two molecules from patent US3947589A (priority 1971, dated 1976) can be followed below.

Data set [1] is described as follows: acute oral toxicity test. Conditions: in vivo. The source says:
The results of an acute oral toxicity test of the active ingredient used in the present invention is that its LD50 is about 6 g/kg in the case of N-lauroyl-L-valine. This is an extremely low toxicity.

Data set [2] relates to Piricularia oryzae (rice blast). Conditions: Table 1; 500 ppm, 50 ml per pot; two days after infection; untreated 33.0.
Data set [3] concerns cucumber downy mildew (Pseudoperonospore cubensis). Nature of the data set: inhibitory test against cucumber downy mildew. Format: in vivo. Conditions: for pest or weed control at 500 ppm: Cucumis sativus. Here is the method: Experimental example 4 : inhibitory test against cucumber downy mildew
Cucumber seeds (variety "Shinhikari No. A") were planted in seed-beds at the biginning of October, three cucumber seeds being planted per seed-bed, and they were grown in a greenhouse made of vinyl resin. This experiment was performed as three-repeated cultivation.
The test plants treated thus were left to spontaneous infection.

Data set [4] relates to Piricularia oryzae (rice blast). In words: whole plant or invertebrate. The settings on record: Pyricularia oryzae, 48 h, read-out: Preventive value.
Data set [5] concerns citrus melanose. In words: inhibitory test against Citrus melanose. The data set is classed as in vivo. The source says: Experimental example 3 : inhibitory test against Citrus melanose a. Test plant: shoots of about 3 years grown seedlings of citrus "Onshu" (2 - 4 trees planted in about 20 cm claypot) b. Solution used for test
As control fungicide, "Daisen" [trade (trade name, product of Nihon-NohyakuCo., Ltd., wettable powder containing zinc ethylene bis (dithiocarbamate)]was sprayed at 1000 ppm. c. Inoculum and the method of inoculation
In order to prepare suspension of pycnospores, distilled and sterilized water was poured on the culture twigs with citrus melanose in a test tube. The suspension containing about 200 of pycnospores was prepared under the observation of microscope of 150 magnification and then sprayed inoculation on the test plants treated as above. After inoculation, the test plants were placed in the inoculation box at 27°C and relative humidity of above 95% for about 3 days. Then, they were transferred into the greenhouse. […]
d. The method of inspection
About 2 - 3 weeks after inoculation, the entire leaves of shoots was inspected for the development of disease and the state of infection was evaluated on a scale of 0 to 3 as follows:
1 : 1 -- 50 of disease spots
2 : 51 -- 150 of disease spots
3 : above 151 of disease spots
The extent of infection and the preventive value were calculated according to the following equations (I) and (II), respectively. [formula] wherein n1, n2 and n3 are number of leaves inspected to be the states of infection 1, 2 and 3, respectively and N is the total number of leaves. [formula]

Where two headings read alike, the source gives them in different places.

As a reminder, the LD50 is the dose at which mortality reaches 50%. High values mean a less toxic substance, low ones a more toxic substance. In data set [1], `CCCCCCCCCCCC(=O)N[C@H](C(=O)O)C(C)C` [No. 2, N-lauroyl-L-valine] yielded an LD50 of about 6000 mg/kg.
As for `CCCCCCCCCCCCCCCCCC(=O)N[C@@H](Cc1ccccc1)C(=O)O` [compound 4], the “Average number of disease lesions per leaf” value in data set [2] came to 7.3. In addition, the pest or weed control at 500 ppm amounted to 47% in data set [3] (read-out: Preventive value (inside)); 42% in data set [3] (read-out: Preventive value (outside)); 78% in data set [4]; 60% in data set [5] (Table 4, about 2-3 weeks after inoculation, read-out: Preventive value). For the same molecule, the “Number of leaves infected (outside)” value in data set [3] (Table 6, 500 ppm, four sprays, 23rd of May, untreated 12) was found to be 7. Besides, the “Number of leaves infected (inside)” value in data set [3] (Table 6, 500 ppm, four sprays, 23rd of May, untreated 22) worked out at 10. Besides, the Extent infection in data set [5] (Table 4, 500 ppm, about 2-3 weeks after inoculation, untreated 53) turned out to be 21%.
